Here are results for two compounds from US11363816B2, “4-amino-6-(heterocyclic)picolinates and 6-amino-2-(heterocyclic)pyramidine-4-carboxylates and their use as herbicides” (Dow AgroSciences LLC, priority 2017, dated 2022).

The experiment deals with POLCO=Polygonum convolvulus L. (wild buckwheat). The experiment in a line: Postemergence field trial, Hanley, Saskatchewan, Canada. The format is in vivo. The conditions noted are these: 66DAAA. Here is the method:
Field trials were established in Canada (in Ellerslie, Alberta; Nisku, Alberta and Hanley, Saskatchewan) to evaluate the efficacy of Compound 5, Compound 6, and Compound 7. Trials were designed as randomized complete blocks with four replicates. Trials were established in spring wheat with natural weed population with plot sizes of 2-3 meters (m) by 8-10 m (width×length). The crops were grown using normal cultural practices for fertilization, seeding, and maintenance to ensure good growth of the crop.
All herbicide treatments were applied post-emergence with applications made to the crops at BBCH (Phenological development stages of a plant) 14 to 22 growth stage. Herbicides were applied with backpack or bicycle sprayers using carbon dioxide (CO2) as a propellant. The sprayers utilized flat fan air-induction spray nozzles calibrated to deliver a uniform spray pattern that provided thorough coverage of the foliage using a 100 L/ha spray volume. All treatments were applied with methylated seed oil (MSO) at 1.25% v/v. Phytotoxicity to the weeds was assessed visually at several intervals after application as percent overall control, compared to an untreated control plot. In general, four replicates were assessed for each treatment. All treatment results are an average of four replicates.
Compound 5, Compound 6 and Compound 7 were applied as emulsifiable concentrate (EC) formulations at 100 g ae/L EC, respectively.

As to `N#CCOC(=O)c1nc(-c2ccc3cc[nH]c3c2F)c(F)c(N)c1Cl` [Compound 6, cyanomethyl 4-amino-3-chloro-5-fluoro-6-(7-fluoro-1H-indol-6-yl)picolinate], the “Percent (%) Visual Control POLCO” value runs as follows: (10 g ae/ha) 47.5%; (20 g ae/ha) 68.8%; (40 g ae/ha) 85.8%.
Regarding `Nc1c(F)c(-c2ccc3cc[nH]c3c2F)nc(C(=O)OCc2ccccc2)c1Cl` [Compound 7, benzyl 4-amino-3-chloro-5-fluoro-6-(7-fluoro-1H-indol-6-yl)picolinate, reference compound], the “Percent (%) Visual Control POLCO” value (10 g ae/ha) is recorded as 46.3%, the “Percent (%) Visual Control POLCO” value (20 g ae/ha) amounted to 63.3% and the “Percent (%) Visual Control POLCO” value (40 g ae/ha) came out at 70%.
